Results from patent US5238936A, “Trisubstituted triazines” (Adir et Compagnie, priority 1991, dated 1993).

Legend:
line DC-3F/AD [1] = experiment: Cytotoxicity (Microculture Tetrazolium Assay): reversal of resistance to actinomycin D, line DC-3F/AD; type: cell-based, Chinese hamster; conditions: 4 days
From the text: The pharmacological study of the compounds of the present invention consisted first of all in an evaluation in vitro carried out on resistant cells. The parameter measured is the cytotoxicity of the antitumour drug, quantified in the absence and in the presence of the reversing compound.
The cells are distributed on microplates and exposed to the cytotoxic compounds (actinomycin D for line DC-3F/AD and adriamycin for line KB-Al) at 9 concentrations (2 by 2 series dilutions). The compounds tested for their capacity to reverse MDR are added at the same time as the cytotoxic agent.
The cells are then incubated for 4 days. […] The results are expressed as a reversion factor (RF): PG,29 [formula]

line DC-3F/AD [2] = experiment: Flow cytometry: intracellular accumulation of adriamycin by cells of the line DC-3F/AD; type: cell-based, Chinese hamster; conditions: ADR 50 μM, 5 hours
From the text: Also measured was the effect of the compounds on the intracellular concentration of the cytotoxic agent. In effect, the known compounds for reversing MDR act by increasing the intracellular concentration of cytotoxic agent. This effect is the consequence of inhibiting the action of gP 170 which is responsible for the efflux of the drug.
By measuring that fluorescence, it is thus possible to obtain a relative measurement of the intracellular concentration of ADR.
The cells 500×10^3 per ml were exposed simultaneously to ADR at a fixed concentration (50 μM) and to the tested compounds at various concentrations. After 5 hours' incubation, the intracellular accumulation of ADR was evaluated by FCM. […] The analysis of each of the samples was carried out on a total of 10,000 cells at a rate of 1,000 cells per second.
The results were presented in the form of linear histograms of the intracellular ADR fluorescence.
Expression of the results: for each of the histograms the mean fluorescence per channel (MEAN) was determined by the information system of the apparatus. For all experiments:
a negative control (cells without ADR) fixed the autofluorescence threshold.
a positive control (cells with ADR) determined the MEAN value=MN1.
the "test" tubes (cells with ADR and with compound) were used to determine, for each of the compounds and at each of the concentrations, the MEAN values=MN2.
The results are expressed in the form of variations from the mean fluorescence obtained for each of the "test" tubes (MN2) in relation to the mean fluorescence obtained with the positive control (MNl): VAR-MEAN=MN2-MN1. The parameter expressed is thus the increase in ADR fluorescence in the presence of the tested compounds.

resistant line P/388/VCR = experiment: Antitumour activity in vivo: increase in antitumour activity of vincristine on murine leukaemia P 388/VCR; set-up: species or system murine; female B6D2Fl mice; conditions: with vincristine […] i.p., no compound: 146 ± 2
From the text: This study was completed by an in vivo study, using a murine leukaemia resistant to vincristine (P/388/VCR) and using the compounds in association with vincristine.
The sensitive parent line P 388 (murine leukaemia) and the sub-line resistant to vincristine, P 388/VCR, were supplied by NCI (Frederick, USA). The tumour cells (10^6 cells) were inoculated on day 0 into the intraperitoneal cavity of female B6D2Fl mice (Iffa Credo, France) weighing from 18 to 20 g (groups of 8 to 10 animals).
Every day for 4 days, starting from day 1, the animals received: […]
30 to 60 minutes later, an administration by the i.p. route of 0.25 mg/kg of vincristine (used as a reference antitumour agent).
The tumour activity is expressed as follows: [formula]
The values are mean values obtained in independent experiments (± sem when n is greater than or equal to 3).

Plasmodium falciparum = conditions: resistance to chloroquine; cited from earlier work
[3] = 50 mg/kg i.p. daily for 4 days, ± sem
[4] = 100 mg/kg i.p. daily for 4 days, ± sem

Compound	Reversion factors (cytotoxicity) with the line DC-3F/AD (line DC-3F/AD [1]; 0.5 μM compound)	Reversion factors (cytotoxicity) with the line DC-3F/AD (line DC-3F/AD [1]; 1 μM compound)	Reversion factors (cytotoxicity) with the line DC-3F/AD (line DC-3F/AD [1]; 5 μM compound)	VAR-MEAN (increase in ADR fluorescence), line DC-3F/AD (line DC-3F/AD [2]; 1.0 μM compound)	VAR-MEAN (increase in ADR fluorescence), line DC-3F/AD (line DC-3F/AD [2]; 5.0 μM compound)	VAR-MEAN (increase in ADR fluorescence), line DC-3F/AD (line DC-3F/AD [2]; […] compound)	T/C % (resistant line P/388/VCR; [3])	T/C % (resistant line P/388/VCR; [4])	VAR-MEAN (increase in ADR fluorescence), line DC-3F/AD (line DC-3F/AD [2]; 10 μM compound)	T/C % (resistant line P/388/VCR; 75 mg/kg i.p. daily for 4 days)	sensitivity of a chloroquine-resistant line (Plasmodium falciparum)
C=CCNc1nc(NCC=C)nc(N2CCC(NCC3c4ccccc4CCc4cc(OC)ccc43)CC2)n1 (racemic) [Example 31, 2,4-diallylamino-6-{4-[((R,S)-10,11-dihydro-5H-2-methoxydibenzo[a,d]cyclohepten-5-yl)methylamino]piperidin-1-yl)-1,3,5-triazine]	3.1	85.9	1913.4	9.4	30.8	26.6	159%	177%	–	–	–
C=CCNc1nc(NCC=C)nc(N2CCC(NCC3c4ccccc4CCc4ccccc43)CC2)n1 [Example 3, 2,4-Diallylamino-6-{4-[(10,11-dihydro-5H-dibenzo[a,d]cyclohepten-5-yl)methylamino]piperidin-1-yl}-1,3,5-triazine]	43	236	3187	20.2	28.3	25.8	208 ± 23%	193 ± 3%	29.6	–	–
C=CCNc1nc(NCCC)nc(N2CCC(NCC3c4ccccc4CCc4ccccc43)CC2)n1 [Example 5, 2-allylamino-4-propylamino-6-{4-[(10,11-dihydro-5H-dibenzo[a,d]cyclohepten-5-yl)methylamino]piperidin-1-yl}-1,3,5-triazine]	3.8	81	2753	17.9	27.3	23.5	184%	195%	24.9	–	–
C=CCNc1nc(NCC=C)nc(N2CCC(NCC3c4ccccc4C=Cc4ccccc43)CC2)n1 [Example 11, 2,4-diallylamino-6-{4-[(5H-dibenzo[a,d]cyclohepten-5-yl)methylamino]piperidin-1-yl}-1,3,5-triazine]	2	26	1408	12.7	24.5	20.2	156%	168 ± 15%	25.8	–	–
C=CCNc1nc(NCC=C)nc(N2CCC(NCC3c4ccccc4CCCc4ccccc43)CC2)n1 [Example 20, 2,4-diallylamino-6-{4-[(5,6,7,12-tetrahydrodibenzo[a,d]cycloocten-12-yl)methylamino]piperidin-1-yl}-1,3,5-triazine]	3.4	52	2951	8.2	22.3	19.7	161%	174%	21.6	–	–
C=CCNc1nc(NCC)nc(N2CCC(NCC3c4ccccc4CCc4ccccc43)CC2)n1 [Example 22, 2-allylamino-4-ethylamino-6-{4-[(10,11-dihydro-5H-dibenzo[a,d]cyclohepten-5-yl)methylamino]piperidin-1-yl}-1,3,5-triazine]	32	177	2499	15.1	23.1	21.9	159%	165%	24.9	–	–
COc1ccc(CCN(C)CCCC(C#N)(c2ccc(OC)c(OC)c2)C(C)C)cc1OC (stereo not drawn) [verapamil, reference compound]	–	–	–	2.1	5.6	4.0	164%	–	8.9	177%	restores the sensitivity of a resistant line
